From patent publication US20120064154A1, “SOLID DRUG FOR ORAL USE” (KISSEI PHARMACEUTICAL CO., LTD., priority 2002, published 2012)

Legend:
[1] = Stability of KMD-3213; type: physicochemical
[2] = Solubility of KMD-3213; type: physicochemical

stability ([1]; against a light exposure): relatively unstable
stability ([1]; in acidic conditions): stable
solubility ([2]; in a neutral medium such as water): hardly soluble
solubility ([2]; in an acidic medium): relatively a high solubility
Compound: C[C@H](Cc1cc2c(c(C(N)=O)c1)N(CCCO)CC2)NCCOc1ccccc1OCC(F)(F)F [KMD-3213]
